We go through five compounds from ChEMBL document CHEMBL1759977, “Investigation of the mode of binding of a novel series of N-benzyl-4-heteroaryl-1-(phenylsulfonyl)piperazine-2-carboxamides to the hepatitis C virus polymerase” (Bioorg Med Chem Lett, 2011).

In experiment [1] the test system is Hepatitis C virus. The experiment is described as follows: Antiviral activity against Hepatitis C virus subtype 1a by replication assay. The experiment is classed as functional, organism-based, Hepacivirus hominis.
Experiment [2] has as its system Hepatitis C virus. The experiment is described as follows: Antiviral activity against Hepatitis C virus subtype 1b by replication assay. The experiment is classed as functional, organism-based, Hepacivirus hominis. As to conditions: genotype 1b.
In experiment [3] the test system is Hepatitis C virus subtype 1a. Put plainly: Binding affinity to HCV 1a wild type NS5B polymerase.
In experiment [4] the test system is Hepatitis C virus. Put plainly: Binding affinity to HCV 1b NS5B polymerase. As to conditions: Hepatitis C virus subtype 1b.

Calls of active or inactive are those of the source. The rule behind the calls is not given here.

Usually EC50 stands for the concentration that produces a half-maximal response. A high value points to lower potency in that assay. In the case of `CC[C@H](C)NC(=O)c1ccc(N2CCN(S(=O)(=O)c3ccc(OC(F)(F)F)cc3)[C@@H](C(=O)NCc3ccc(OC(F)(F)F)cc3)C2)nn1`, the EC50 is 87 nM in the experiment on Hepatitis C virus [1] and 7 nM with Hepatitis C virus [2].
As to `O=C(NC1CC1)c1ccc(N2CCN(S(=O)(=O)c3ccc(OC(F)(F)F)cc3)[C@@H](C(=O)NCc3ccc(OC(F)(F)F)cc3)C2)nn1`, the outcome (in experiment [3]; in the experiment on Hepatitis C virus [4]) was Active. Besides, the half-maximal effective concentration (EC50) in the experiment on Hepatitis C virus [1] came out at 169 nM; in the experiment with Hepatitis C virus [2] it was 9 nM.
`COc1ccc(CNC(=O)C2CN(c3cc(OC)nc(OC)n3)CCN2S(=O)(=O)c2ccc(OC(F)(F)F)cc2)cc1` (racemic): the EC50 in the experiment with Hepatitis C virus [1] came to 8100 nM; in the experiment with Hepatitis C virus [2] it was 700 nM. The result in the experiment on Hepatitis C virus [4] was Active.
Regarding `CCc1ccc(S(=O)(=O)N2CCN(c3cc(OC)nc(OC)n3)CC2C(=O)NCc2ccc(OC)cc2)cc1` (racemic), the EC50 with Hepatitis C virus [1] was determined as 25000 nM; in the experiment with Hepatitis C virus [2] it was 2000 nM.
In the case of `COc1ccc(CNC(=O)C2CN(c3ccc(Cl)nn3)CCN2S(=O)(=O)c2ccc(OC(F)(F)F)cc2)cc1` (racemic), the EC50 in the experiment on Hepatitis C virus [1] was 2200 nM; with Hepatitis C virus [2] it was 700 nM. In addition, the result in the experiment with Hepatitis C virus [4] was Active.
